In US20110071177A1, “FUNGICIDAL ACTIVE SUBSTANCE COMBINATION” (Bayer CropScience AG, priority 2005, published 2011):

Test system: Sphaerotheca fuliginea
Assay: Sphaerotheca test (cucumber) / protective
Assay type: in vivo, Sphaerotheca fuliginea on cucumber
Conditions: application rate 4 ppm, evaluation 7 days after inoculation
Method: Solvents: 24.5 parts by weight of acetone • 24.5 parts by weight of dimethylacetamide Emulsifier: 1 part by weight of alkylaryl polyglycol ether To produce a suitable preparation of active compound, 1 part by weight of active compound or active compound combination is mixed with the stated amounts of solvents and emulsifier, and the concentrate is diluted with water to the desired concentration, or a commercial formulation of active compound or active compound combination with water is diluted with water to the desired concentration. To test for protective activity, young plants are sprayed with the active compound preparation at the stated application rate. After the spray coating has dried on, the plants are inoculated with an aqueous spore suspension of Sphaerotheca fuliginea. The plants are then placed in a greenhouse at about 23° C. and a relative atmospheric humidity of about 70%. Evaluation is carried out 7 days after inoculation. Here, 0% means an efficacy which corresponds to that of the control, whereas an efficacy of 100% means that no infestation is observed.

For CO/N=C(/C(=O)OC)c1ccccc1CO/N=C(\C)c1cccc(C(F)(F)F)c1 [2-[α-{[(α-methyl-3-trifluoromethylbenzyl)imino]oxy}-o-tolyl]glyoxylic acid methyl ester O-methyloxime], the “% efficacy” value was 10%.
